From ChEMBL document CHEMBL6182903, “Synthetic approaches and clinical application of KRAS inhibitors for cancer therapy” (Eur J Med Chem, 2025)
Each block holds one compound with its values, some of them ahead of it.

How the values were obtained:
BaF3 = assay: Cytotoxicity against mouse BaF3 cells harboring KRAS G12R mutant assessed as reduction in cells growth incubated for 72 hrs by Celltiter-Glo luminescence-based assay; type: functional, cell-based; conditions: BaF3, 72 h
GTPase KRas [1] = target: T1, GTPase KRas (Homo sapiens, UniProt P01116, G12S); assay: Binding affinity to human recombinant GDP-bound KRAS G12S mutant (1 to 169 residues) assessed as inhibition constant
GTPase KRas [2] = target: T1, GTPase KRas; assay: Inhibition of KRAS G12S mutant in human A549 cells assessed as reduction in ERK phosphorylation; type: cell-based
[3] = target: von Hippel-Lindau disease tumor suppressor/GTPase KRas (Homo sapiens, UniProt P01116+P40337, G12C); assay: PROTAC activity at VHL/KRAS G12C mutant in human MIA PaCa-2 cells assessed as induction of KRAS G12C degradation; type: cell-based
[4] = PROTAC activity at CRBN/KRAS G12C mutant in human MIA PaCa-2 cells assessed as induction of KRAS G12C degradation; type: cell-based

Compound: CC(=O)CC(=O)N1[C@@H]2CC[C@H]1CN(c1nc(OCC34CCCN3CCC4)nc3c(F)c(-c4cccc5cccc(Cl)c45)ncc13)C2
- IC50 (BaF3): < 100 µM

- Ki (GTPase KRas [1]): 26 µM
- IC50 (GTPase KRas [2]): 2.4 µM
Compound: O=C1O[C@H]2CN(c3nc(OCC45CCCN4CCC5)nc4c3CCN(c3cccc5cccc(Cl)c35)C4)CC[C@@H]12

Compound: C=C(F)C(=O)N1CCN(c2nc(OC[C@@H]3CCCN3CCCOCCC(=O)N[C@H](C(=O)N3C[C@H](O)C[C@H]3C(=O)NCc3ccc(-c4scnc4C)cc3)C(C)(C)C)nc3c2CCN(c2cccc4cccc(Cl)c24)C3)C[C@@H]1CC#N
- DC50 [3]: 0.12 µM

Compound: C=CC(=O)N1CCN(c2nc(NCCCN3CCN(CCCNc4cccc5c4C(=O)N(C4CCC(=O)NC4=O)C5=O)CC3)nc3c(F)c(-c4cc(O)cc5ccccc45)c(Cl)cc23)CC1 (stereo not given)
- DC50 [4]: 3.2 µM
